Data published in the NIST ThermoML archive (doi:10.1021/je400056z).

Test: xn = mol fraction of the nth substance listed
Conditions: Liquid, Vibrating tube method

CCCCCCCCCCCCC [tridecane] + O=C=O
Conditions | mass density [kg/m3]
333.3 K, 17000 kPa, x2 = 0.2526 | 746.5
333.3 K, 18000 kPa, x2 = 0.0955 | 743.9
333.3 K, 18000 kPa, x2 = 0.2526 | 747.3
333.3 K, 19000 kPa, x2 = 0.0955 | 744.6
333.3 K, 19000 kPa, x2 = 0.2526 | 748.1
333.3 K, 20000 kPa, x2 = 0.0955 | 745.3
333.3 K, 20000 kPa, x2 = 0.2526 | 748.9
333.3 K, 21000 kPa, x2 = 0.0955 | 746.1
333.3 K, 21000 kPa, x2 = 0.2526 | 749.7
333.3 K, 22000 kPa, x2 = 0.0955 | 746.7
333.3 K, 22000 kPa, x2 = 0.2526 | 750.5
333.3 K, 23000 kPa, x2 = 0.0955 | 747.4
333.3 K, 23000 kPa, x2 = 0.2526 | 751.2
333.3 K, 24000 kPa, x2 = 0.0955 | 748.1
333.3 K, 24000 kPa, x2 = 0.2526 | 751.9
333.3 K, 25000 kPa, x2 = 0.0955 | 748.7
333.3 K, 25000 kPa, x2 = 0.2526 | 752.6
343.02 K, 8000 kPa, x2 = 0.5259 | 739.5
343.02 K, 9000 kPa, x2 = 0.5259 | 740.9
343.02 K, 10000 kPa, x2 = 0.5259 | 742.3
343.02 K, 11000 kPa, x2 = 0.5259 | 743.7
343.02 K, 12000 kPa, x2 = 0.5259 | 745.1
343.02 K, 13000 kPa, x2 = 0.5259 | 746.4
343.02 K, 14000 kPa, x2 = 0.5259 | 747.6
343.02 K, 15000 kPa, x2 = 0.5259 | 748.9
343.02 K, 16000 kPa, x2 = 0.5259 | 750.1
343.02 K, 17000 kPa, x2 = 0.5259 | 751.3
343.02 K, 18000 kPa, x2 = 0.5259 | 752.5
343.02 K, 19000 kPa, x2 = 0.5259 | 753.7
343.02 K, 20000 kPa, x2 = 0.5259 | 754.8
343.02 K, 21000 kPa, x2 = 0.5259 | 755.9
343.02 K, 22000 kPa, x2 = 0.5259 | 757
343.02 K, 23000 kPa, x2 = 0.5259 | 758.1
343.02 K, 24000 kPa, x2 = 0.5259 | 759.2
343.02 K, 25000 kPa, x2 = 0.5259 | 760.2
343.13 K, 15000 kPa, x2 = 0.8978 | 710.8
343.13 K, 16000 kPa, x2 = 0.8978 | 723.5
343.13 K, 17000 kPa, x2 = 0.8978 | 733.2
343.13 K, 18000 kPa, x2 = 0.8978 | 741.1
343.13 K, 19000 kPa, x2 = 0.8978 | 748
343.13 K, 20000 kPa, x2 = 0.8978 | 755
343.13 K, 21000 kPa, x2 = 0.8978 | 761.4
343.13 K, 22000 kPa, x2 = 0.8978 | 767.3
343.13 K, 23000 kPa, x2 = 0.8978 | 772.8
343.13 K, 24000 kPa, x2 = 0.8978 | 778
343.13 K, 25000 kPa, x2 = 0.8978 | 782.8
343.14 K, 9000 kPa, x2 = 0.0955 | 729.8
343.14 K, 9000 kPa, x2 = 0.2526 | 732.2
343.14 K, 10000 kPa, x2 = 0.0955 | 730.6
343.14 K, 10000 kPa, x2 = 0.2526 | 733.2
343.14 K, 11000 kPa, x2 = 0.0955 | 731.5
343.14 K, 11000 kPa, x2 = 0.2526 | 734.1
343.14 K, 12000 kPa, x2 = 0.0955 | 732.4
343.14 K, 12000 kPa, x2 = 0.2526 | 735
343.14 K, 13000 kPa, x2 = 0.0955 | 733.2
343.14 K, 13000 kPa, x2 = 0.2526 | 736
343.14 K, 14000 kPa, x2 = 0.0955 | 734.1
343.14 K, 14000 kPa, x2 = 0.2526 | 736.9
343.14 K, 15000 kPa, x2 = 0.0955 | 734.9
343.14 K, 15000 kPa, x2 = 0.2526 | 737.8
343.14 K, 16000 kPa, x2 = 0.0955 | 735.7
343.14 K, 16000 kPa, x2 = 0.2526 | 738.6
343.14 K, 17000 kPa, x2 = 0.0955 | 736.5
343.14 K, 17000 kPa, x2 = 0.2526 | 739.5
343.14 K, 18000 kPa, x2 = 0.0955 | 737.3
343.14 K, 18000 kPa, x2 = 0.2526 | 740.4
343.14 K, 19000 kPa, x2 = 0.0955 | 738.1
343.14 K, 19000 kPa, x2 = 0.2526 | 741.2
343.14 K, 20000 kPa, x2 = 0.0955 | 738.9
343.14 K, 20000 kPa, x2 = 0.2526 | 742
343.14 K, 21000 kPa, x2 = 0.0955 | 739.6
343.14 K, 21000 kPa, x2 = 0.2526 | 742.8
343.14 K, 22000 kPa, x2 = 0.0955 | 740.4
343.14 K, 22000 kPa, x2 = 0.2526 | 743.6
343.14 K, 23000 kPa, x2 = 0.0955 | 741.1
343.14 K, 23000 kPa, x2 = 0.2526 | 744.4
343.14 K, 24000 kPa, x2 = 0.0955 | 741.8
343.14 K, 24000 kPa, x2 = 0.2526 | 745.1
343.14 K, 25000 kPa, x2 = 0.0955 | 742.5
343.14 K, 25000 kPa, x2 = 0.2526 | 745.9
343.32 K, 14000 kPa, x2 = 0.7549 | 752.1
343.32 K, 15000 kPa, x2 = 0.7549 | 755.2
343.32 K, 16000 kPa, x2 = 0.7549 | 758
343.32 K, 17000 kPa, x2 = 0.7549 | 760.9
343.32 K, 18000 kPa, x2 = 0.7549 | 763.8
343.32 K, 19000 kPa, x2 = 0.7549 | 766.7
343.32 K, 20000 kPa, x2 = 0.7549 | 769.6
343.32 K, 21000 kPa, x2 = 0.7549 | 772.4
343.32 K, 22000 kPa, x2 = 0.7549 | 775.2
343.32 K, 23000 kPa, x2 = 0.7549 | 777.9
343.32 K, 24000 kPa, x2 = 0.7549 | 780.7
343.32 K, 25000 kPa, x2 = 0.7549 | 783.5
353.12 K, 9000 kPa, x2 = 0.0955 | 722.6
353.12 K, 9000 kPa, x2 = 0.2526 | 724.8
353.12 K, 10000 kPa, x2 = 0.0955 | 723.6
353.12 K, 10000 kPa, x2 = 0.2526 | 725.8
353.12 K, 11000 kPa, x2 = 0.0955 | 724.5
353.12 K, 11000 kPa, x2 = 0.2526 | 726.8
353.12 K, 12000 kPa, x2 = 0.0955 | 725.4
353.12 K, 12000 kPa, x2 = 0.2526 | 727.8
353.12 K, 13000 kPa, x2 = 0.0955 | 726.3
353.12 K, 13000 kPa, x2 = 0.2526 | 728.8
353.12 K, 14000 kPa, x2 = 0.0955 | 727.2
353.12 K, 14000 kPa, x2 = 0.2526 | 729.7
353.12 K, 15000 kPa, x2 = 0.0955 | 728.1
353.12 K, 15000 kPa, x2 = 0.2526 | 730.7
353.12 K, 16000 kPa, x2 = 0.0955 | 729
353.12 K, 16000 kPa, x2 = 0.2526 | 731.6
353.12 K, 17000 kPa, x2 = 0.0955 | 729.9
353.12 K, 17000 kPa, x2 = 0.2526 | 732.5
353.12 K, 18000 kPa, x2 = 0.0955 | 730.7
353.12 K, 18000 kPa, x2 = 0.2526 | 733.4
353.12 K, 19000 kPa, x2 = 0.0955 | 731.5
353.12 K, 19000 kPa, x2 = 0.2526 | 734.3
